In patent publication US20250354930A1, “IONIC LIQUID ENCAPSULATION OF NIR DYES FOR THE IMPROVEMENT OF BLOODSTAIN DETECTION” (University of Mississippi, priority 2024, published 2025):
In brackets after ≈: the same amount, converted by molar mass. Several values for one entry are separate records, joined by “and”; a condition that tells them apart may be missing. Equal entries are not always repeated. Where two headings read alike, the source gives them in different places.

Columns and labels:
[1] = Conductivity measurements of 160 mM solutions; assay type: physicochemical
Experimental: Conductivity was measured using a Thermo Scientific Orion Star […] conductivity meter using a DuraProbe 4-electrode conductivity cell. […] The clean probe was introduced into each solution to record the conductivity. The conductivity was measured in triplicate for each of the solutions.

HSA [2] = molecular target: T1, HSA (Homo sapiens, UniProt P02768); test: Isothermal titration calorimetry of HSA titrated into SO3SQ; assay type: binding
T1 sequence (P02768 25-609): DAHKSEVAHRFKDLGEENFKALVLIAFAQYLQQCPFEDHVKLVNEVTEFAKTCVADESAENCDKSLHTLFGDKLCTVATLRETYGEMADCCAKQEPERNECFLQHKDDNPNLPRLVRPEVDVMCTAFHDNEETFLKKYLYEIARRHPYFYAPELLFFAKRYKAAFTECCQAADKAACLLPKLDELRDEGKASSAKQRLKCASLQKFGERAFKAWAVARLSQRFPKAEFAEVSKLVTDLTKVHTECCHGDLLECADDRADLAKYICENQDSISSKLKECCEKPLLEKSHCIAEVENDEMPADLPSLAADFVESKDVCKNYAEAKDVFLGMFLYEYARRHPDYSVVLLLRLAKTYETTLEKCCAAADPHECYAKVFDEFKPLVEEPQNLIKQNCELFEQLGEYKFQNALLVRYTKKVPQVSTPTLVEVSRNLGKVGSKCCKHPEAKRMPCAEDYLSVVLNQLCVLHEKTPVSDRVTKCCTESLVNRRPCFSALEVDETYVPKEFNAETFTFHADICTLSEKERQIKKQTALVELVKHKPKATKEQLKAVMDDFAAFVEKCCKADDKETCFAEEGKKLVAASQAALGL
Experimental: ITC measurements were carried out in triplicate on a Malvern VP-ITC. Uncertainties are provided as the standard error of the mean. The solvent was either buffer alone (25 mM sodium phosphate, pH 6.5) or buffer plus 40 mM CG 1:1. HSA was dialyzed into the appropriate buffer, and solid SO3SQ was dissolved in dialysis buffer to ensure a close buffer match. This was necessary in order to prevent strong heats of dilution that are often observed when ILs are titrated in separately. Both HSA and dye solutions were degassed for 10 min before experiments. A typical experiment contained 60 μM HSA in the syringe and 60 μM dye in the calorimetry cell. A total of 28 injections were typically used, each 10 μL in volume, and 10 min of equilibration time was allowed to occur between injections. Measurements were performed at 25° C. Because injection heats and corresponding signal-to-noise ratios were small, manual baseline fitting was performed using Origin software. Since K and N cannot be determined using this ratio of HSA and dye in the presence of CG 1:1, only the enthalpy is accessible from these measurements. The enthalpy for each ITC experiment was reported as the average enthalpy of the first 10 useable injections, which were all similar. […] For reverse titrations, performed without CG 1:1, N, K, and ΔH were fit using CHASM, and the heat of the final injection was used as the baseline. The number of binding sites per HSA molecule was reported as the inverse value of N from fitting, as is typical for reverse titrations. Finally, titrations were also performed where SO3SQ or HSA was systematically removed, one at a time, in the presence and absence of CG 1:1, to determine whether dilution heats were contributing to the measured enthalpy. In all cases, dilution heats were small, less than 10% of the observed enthalpy, and no further corrections were made.

[3] = in the presence of fetal bovine serum; cited from earlier work
[4] = molecular target: T2, human serum albumin (HSA) (Homo sapiens, UniProt P02768); settings: for free energy of binding: calculated from KA
T2 sequence (P02768 25-609): as above

HSA [5] = molecular target: T1, HSA; test: Dynamic light scattering size and zeta potential of HSA systems; settings: 0.1 mg/mL HSA in 10 μM SO3SQ, no IL
Aqueous solubility = assay type: physicochemical; settings: water
HSA [6] = molecular target: T1, HSA; test: Circular dichroism spectroscopy of HSA; settings: 1 mg/mL HSA; 10 μM SO3SQ, with or without 160 mM CG (1:1)
Experimental: CD experiments to determine the impact the 1:1 SO3SQ and CG 1:1 may have on HSA and DNA were performed on a Jasco J-1500 CD spectrophotometer. The measurements were performed using a Jasco Spectrosil 1 mm path length cuvette. Samples containing HSA were prepared at 1 mg/mL in either water, 10 μM SO3SQ in water, and 10 μM SO3SQ in water with 1:1 160 mM CG 1:1 added. The protein scans were conducted at a 200-260 nm range. For measurements involving DNA, bacterial plasmid DNA was used, and the DNA concentration was maintained at 12 nM across all samples due to high instrument sensitivity. CG 1:1 was added at 2.5% v/v to achieve a 160 mM concentration. A solution of 9.14 μM SO3SQ in water was made and added to DNA solutions in 5 μL increments. These scans were completed over a 200-350 nm range.

[7] = molecular target: T2, human serum albumin (HSA); settings: dissolved in human serum albumin (HSA); cited from earlier work
[8] = 10 μM dye; IL scanned 0-240 mM or additive at 160 mM
[9] = absence of CG 1:1, reverse titration, 25° C.

## [Cl-].[Na+] [NaCl]
[1]
  Conductivity, Mean ± SD: 20.4 ± 0.2 μS/cm
  Conductivity, Replicate 1: 20.2 μS/cm
  Conductivity, Replicate 2: 20.6 μS/cm
  Conductivity, Replicate 3: 20.3 μS/cm
  average conductance: 20.4±0.2 mS/cm
  conductance relative to that of the IL: 100 ×

## CC1=C(c2ccc(OCCCCS(=O)(=O)O)cc2)/C(=C2/C(=O)C(c3c(-c4ccc(OCCCCS(=O)(=O)[O-])cc4)c(C)c4ccccn34)C2O)[n+]2ccccc21 (stereo not drawn) [SO3SQ]
HSA [2]; [9]
  K: (1.8±0.4)×10^6
  N (number of binding sites per HSA molecule): 11.5±0.4
  heat of binding, ΔH: -18 ± 2 kcal/mol
  ΔG°: -8.50 ± 0.13 kcal/mol
HSA [2]; buffer containing 40 mM ionic liquid, 25 mM sodium phosphate pH 6.5, 25° C.
  enthalpy of binding between HSA and SO3SQ, ΔH: 6.1 ± 0.2 kcal/mol
[3]
  fluorescence quantum yield ΦF: 58%
[4]; 10 μM SO3SQ, no IL
  apparent association constant KA,app of HSA in SO3SQ: 3.2×10^5 and 2.0×10^5
[4]; system containing just the dye
  free energy of binding: -7.4 kcal/mol
[4]; system containing the dye and IL
  free energy of binding: -8.0 kcal/mol
HSA [5]
  average charge (zeta potential): −20±5 mV
  average size: 150±20 nm
Aqueous solubility
  solubility: ~60 µM (≈ 47.9 µg/mL)
HSA [6]
  effect on the secondary structure of HSA: increase in the alpha helical content
[7]
  fluorescence quantum yield ΦF: 61.1%

## O=C(O)CO [glycolic acid]
[8]
  effect on the dye's fluorescence in the presence of blood: little impact
